From article PMC12615753, “Glutathione as a taste modulator: molecular mechanisms of interaction with umami and sweet taste receptors” (Food Chemistry: Molecular Sciences, 2025)

Target: T1, hTAS1R1/rTAS1R3(Mut2) (UniProt Q7RTX1+Q923K1, L72W/P67S/S282A/Y281H)
T1 sequence (Q7RTX1 21-841): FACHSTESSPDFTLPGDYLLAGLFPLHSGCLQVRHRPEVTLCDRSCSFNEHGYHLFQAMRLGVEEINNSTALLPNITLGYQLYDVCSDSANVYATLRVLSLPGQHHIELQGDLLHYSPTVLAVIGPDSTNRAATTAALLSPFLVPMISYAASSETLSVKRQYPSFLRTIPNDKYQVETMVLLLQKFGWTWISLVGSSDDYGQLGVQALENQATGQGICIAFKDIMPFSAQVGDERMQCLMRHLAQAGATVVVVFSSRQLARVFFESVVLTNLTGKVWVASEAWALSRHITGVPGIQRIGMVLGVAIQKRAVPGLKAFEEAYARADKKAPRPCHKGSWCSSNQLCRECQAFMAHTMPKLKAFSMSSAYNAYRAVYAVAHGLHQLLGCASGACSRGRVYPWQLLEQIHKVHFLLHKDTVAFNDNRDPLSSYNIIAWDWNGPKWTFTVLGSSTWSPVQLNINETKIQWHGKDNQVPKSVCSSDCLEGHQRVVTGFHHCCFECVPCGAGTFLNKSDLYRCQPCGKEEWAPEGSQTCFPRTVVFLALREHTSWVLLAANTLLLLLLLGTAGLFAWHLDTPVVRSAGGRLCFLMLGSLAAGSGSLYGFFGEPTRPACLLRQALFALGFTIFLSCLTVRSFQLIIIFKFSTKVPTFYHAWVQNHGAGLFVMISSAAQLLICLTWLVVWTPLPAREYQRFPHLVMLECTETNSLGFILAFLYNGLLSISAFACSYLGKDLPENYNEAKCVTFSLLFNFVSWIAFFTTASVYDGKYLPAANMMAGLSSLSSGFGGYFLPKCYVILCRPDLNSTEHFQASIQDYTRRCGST
T1 sequence (Q923K1 21-858 P67S/L72W/Y281H/S282A): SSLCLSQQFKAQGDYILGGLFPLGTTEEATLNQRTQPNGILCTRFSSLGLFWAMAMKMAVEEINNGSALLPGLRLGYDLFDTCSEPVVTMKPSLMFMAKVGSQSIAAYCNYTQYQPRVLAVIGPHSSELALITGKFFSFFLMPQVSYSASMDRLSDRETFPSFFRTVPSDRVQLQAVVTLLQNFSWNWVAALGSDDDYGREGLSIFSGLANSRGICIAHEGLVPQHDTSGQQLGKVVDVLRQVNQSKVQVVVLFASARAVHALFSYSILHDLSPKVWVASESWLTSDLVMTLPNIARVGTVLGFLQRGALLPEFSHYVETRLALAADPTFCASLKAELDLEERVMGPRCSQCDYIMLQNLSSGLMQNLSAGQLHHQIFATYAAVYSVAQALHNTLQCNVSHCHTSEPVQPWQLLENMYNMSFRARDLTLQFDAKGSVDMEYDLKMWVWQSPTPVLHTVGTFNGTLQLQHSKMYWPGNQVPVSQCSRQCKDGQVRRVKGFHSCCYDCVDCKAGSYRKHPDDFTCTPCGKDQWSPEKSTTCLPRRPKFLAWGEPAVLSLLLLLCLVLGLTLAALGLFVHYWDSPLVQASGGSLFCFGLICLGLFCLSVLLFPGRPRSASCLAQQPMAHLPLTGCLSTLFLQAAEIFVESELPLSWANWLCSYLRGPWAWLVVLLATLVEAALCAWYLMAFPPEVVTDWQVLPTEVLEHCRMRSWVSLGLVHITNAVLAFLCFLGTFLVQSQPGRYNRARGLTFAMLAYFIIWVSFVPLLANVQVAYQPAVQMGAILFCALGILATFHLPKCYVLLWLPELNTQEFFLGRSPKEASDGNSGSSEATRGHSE
Assay: Calcium assay, mutated rTAS1R3 co-expressed with hTAS1R1
Details: for response to the agonist alone: Mut2
Experimental: HEK293T/17 cells (ATCC CRL-11268) were seeded into clear bottom black 96-well plates coated with poly-D-lysine at a density of 32500 cells/well in 100 μL of DMEM containing 4.5 g/L glucose and supplemented with penicillin/streptomycin, 2 mM GlutaMAX and 10 % dialyzed fetal bovine serum. The plates were incubated for 24 h at 37 °C and 7.3 % CO2 in a humidified atmosphere. After incubation, using Fugene® 4 K (0.46 μL/well, Promega, Illkirch, France), the cells were transiently transfected with pcDNA3-hTAS1R1-WT (60 ng/well) or TAS1R1 mutants, pcDNA4-rTAS1R3 (60 ng/well), pcDNA3-Gα15i2 (10 ng/well), and pGP-CMV-GCaMP6s (Addgene #40753; 10 ng/well) as a genetically encoded calcium indicator. Twenty-four hours after transfection, the HEK293T/17 cells were rinsed with 100 μL of C1 buffer (130 mM NaCl, 5 mM KCl, 10 mM HEPES, 2 mM CaCl2, and 5 mM sodium pyruvate, pH 7.4). For each molecule tested, a semi-logarithmic concentration range was created consisting of seven increasing concentrations and a negative control (zero dose) made of buffer C1. Binary mixtures with different molecules were also made to study potential synergy. In this case, the concentration range was tested in C1 buffer containing the other molecules to be tested. The concentration ranges varied depending on the molecule, its solubility, and its effectiveness in activating the receptor. All the solutions were made on the day of the test to prevent any oxidation of the compounds. If needed, the pH of each solution was adjusted by to pH 7.4 by adding NaOH. After 20 s of basal fluorescence calcium measurement, the cells were stimulated via automatic injection of a range of compounds in eight wells, and the signal emission was recorded for an additional 70 s, via a FlexStation 3® fluorometric microplate reader (Molecular Devices, San Jose, CA, USA). As a control, molecules were also tested on mock-transfected cells with the empty vector. The emitted fluorescence was measured at a wavelength of 510 nm after excitation at 488 nm. Each measurement was performed in duplicate on the same plate, and the experiments were carried out at least four times. Kinetic data were acquired via SoftMax Pro 5.4.6 software (Molecular Devices). For each well, the decrease in the raw fluorescence as the relative fluorescence changed was calculated as ΔF/F0. Replicates were averaged for the wells subjected to the same stimuli, the background signal was subtracted, and the fluorescence changes in mock-transfected cells were subtracted. The half-maximal effective concentration (EC50) and maximal signal amplitude (max ∆F/F0) were calculated via non-linear regression of the sigmoidal function four-parameter logistic equation [f(x) = min + (max − min)/(1 + (x/EC50)^nH)] via SigmaPlot 15.0 software (Grafiti LLC, Palo Alto, CA, USA). […] For a clearer understanding of the results, the amplitude values in certain dose-response curves were normalized to max ∆F/F0 = 1, to eliminate the differences in amplitude.
We also selected other residues surrounding the cavity that differed from species to species and were not directly involved in ligand binding but rather in dynamic phenomena resulting in signal transmission, namely, four residues located less deep in the binding cavity that we mutated to their human counterparts (Y281H, S282A, P67S, L72W) (Mut2) (Fig. S3).

With `N[C@@H](CCC(=O)N[C@@H](CS)C(=O)NCC(=O)O)C(=O)O` [GSH, γ-L-glutamyl-L-cysteinyl-glycine] the EC50 was 1220 ± 488 µM and the “response to the agonist alone” value was “abolished”.

With `N[C@@H](CCC(=O)O)C(=O)O` [L-Glu, L-glutamic acid, reference compound] the “response to the agonist alone” value was “abolished”.

For `CCCC(CCC)NC(=O)c1ccc2c(c1)OCO2` [S807, N-(heptan-4-yl)benzo[d][1,3]dioxole-5-carboxamide, reference compound], the EC50 was 1.59 ± 0.27 µM and the “response to the agonist alone” value was “severely impaired”.
